Experimental data: patent publication US10040788B2, “1,3,4-thiadiazole compounds and their use in treating cancer” (AstraZeneca AB, priority 2014, dated 2018)

Each compound was assayed on NCI-H1703 cells (assay: GLS Cell Proliferation Assay (NCI-H1703)). Details: Homo sapiens, 120 h; NCI-H1703 cells, 5 days incubation; geometric mean where repeated; read-out: Assay c) GLS Cell Proliferation Assay.
Assay type: cell-based, human
From the text: The following assays were used to measure the effects of the compounds of the present invention: a) GLS Enzyme Potency Assay; b) GLS Cell Potency Assay; c) GLS Cell Proliferation Assay; and d) Mouse Xenograft Model. During the description of the assays, generally: • i. The following abbreviations have been used: CO2=Carbon dioxide; DMEM=Dulbecco's Modified Eagle Medium; DMSO=Dimethyl sulphoxide; EDTA=Ethylenediaminetetraacetic acid; EGTA=Ethylene glycol tetraacetic acid; FCS=Foetal calf serum; h=Hour(s); NBS=Non-binding surface; SDS=Sodium dodecyl sulphate; r.t.=room temperature; TRIS=Tris(Hydroxymethyl)aminomethane. • ii. […]
The ability of compounds to inhibit cell growth was measured using a 384 well plate NCI-H1703 cell proliferation assay. NCI-H1703 cells were grown in phenol red free RPMI1640, 10% FCS and 2 mM glutamine and seeded at a density of 750 cells per well in 40 μl of growth medium into clear-bottom 384 well assay plates (Corning product code 3712) and incubated for 24 h at 37° C., 5% CO2. […] DMSO concentration was maintained at 0.3% by back filling with DMSO solution. Plates were incubated for 5 days at 37° C., 5% CO2, Sytox Green and Saponin added to final concentration of 2 μM and 0.25% respectively and incubated for 6 h prior to analysis. Plates were read on an Acumen eX3 (TTP Labtech) using 488 nm excitation and FITC filter set (500-530 nm) for emission. IC50 values were calculated by curve fitting to max inhibition of day zero growth using GeneData software analysis.
In the case of `CO[C@@H](C(=O)Nc1nnc(N[C@@H]2CCN(c3nccnn3)C2)s1)c1ccc(F)cc1` [17(b), (2R)-2-(4-fluorophenyl)-2-methoxy-N-[5-[[(3R)-1-(1,2,4-triazin-3-yl)pyrrolidin-3-yl]amino]-1,3,4-thiadiazol-2-yl]acetamide], the IC50 is reported as 0.12 µM.
With `[2H]C([2H])([2H])O[C@]([2H])(C(=O)Nc1nnc(N[C@@H]2CCN(c3cccnn3)C2)s1)c1ccccc1` [20(a), (2S)-2-deuterio-2-phenyl-N-[5-[[(3R)-1-pyridazin-3-ylpyrrolidin-3-yl]amino]-1,3,4-thiadiazol-2-yl]-2-(trideuteriomethoxy)acetamide] the IC50 was 0.00194 µM.
`CCO[C@H](C(=O)Nc1nnc(N[C@@H]2CCN(c3cccnn3)C2)s1)c1cccc(OC)c1` [30(a), (2S)-2-ethoxy-2-(3-methoxyphenyl)-N-[5-[[(3R)-1-pyridazin-3-ylpyrrolidin-3-yl]amino]-1,3,4-thiadiazol-2-yl]acetamide] gave an IC50 of 0.0716 µM.
In the case of `CO[C@@H](C(=O)Nc1nnc(N[C@@H]2CCN(c3cccnn3)C2)s1)c1ccccc1` [Example 2(b), (2R)-2-Methoxy-2-phenyl-N-[5-[[(3R)-1-pyridazin-3-ylpyrrolidin-3-yl]amino]-1,3,4-thiadiazol-2-yl]acetamide], the IC50 is reported as 0.179 µM.
Compound `CCO[C@@H](C(=O)Nc1nnc(N[C@@H]2CCN(c3cccnn3)C2)s1)c1ccc(OC)cc1` [28(b), (2R)-2-ethoxy-2-(4-methoxyphenyl)-N-[5-[[(3R)-1-pyridazin-3-ylpyrrolidin-3-yl]amino]-1,3,4-thiadiazol-2-yl]acetamide] has an IC50 of 0.151 µM.
In the case of `CCO[C@H](C(=O)Nc1nnc(N[C@@H]2CCN(c3cccnn3)C2)s1)c1cccc(OC(F)F)c1` [Example 15(a), (2S)-2-[3-(Difluoromethoxy)phenyl]-2-ethoxy-N-[5-[[(3R)-1-pyridazin-3-ylpyrrolidin-3-yl]amino]-1,3,4-thiadiazol-2-yl]acetamide], the IC50 is reported as 0.000921 µM.
With `CO[C@@H](C(=O)Nc1nnc(N[C@@H]2CCN(c3cncnn3)C2)s1)c1cccc(OC(F)F)c1` [23(b), (2R)-2-[3-(difluoromethoxy)phenyl]-2-methoxy-N-[5-[[(3R)-1-(1,2,4-triazin-6-yl)pyrrolidin-3-yl]amino]-1,3,4-thiadiazol-2-yl]acetamide] the IC50 was 0.0354 µM.
`CO[C@@H](C(=O)Nc1nnc(N[C@@H]2CCN(c3cccnn3)C2)s1)c1ccc(F)cc1` [Example 12(b), (2R)-2-(4-Fluorophenyl)-2-methoxy-N-[5-[[(3R)-1-pyridazin-3-ylpyrrolidin-3-yl]amino]-1,3,4-thiadiazol-2-yl]acetamide] was tested, and the IC50 was 0.429 µM.
Work on `CCO[C@@H](C(=O)Nc1nnc(N[C@@H]2CCN(c3cccnn3)C2)s1)c1cccc(OC(F)F)c1` [Example 15(b), (2R)-2-[3-(Difluoromethoxy)phenyl]-2-ethoxy-N-[5-[[(3R)-1-pyridazin-3-ylpyrrolidin-3-yl]amino]-1,3,4-thiadiazol-2-yl]acetamide] yielded an IC50 of 0.00247 µM.
For `CO[C@H](C(=O)Nc1nnc(N[C@@H]2CCN(c3nccnn3)C2)s1)c1ccccc1` [Example 1(a), (2S)-2-Methoxy-2-phenyl-N-[5-[[(3R)-1-(1,2,4-triazin-3-yl)pyrrolidin-3-yl]amino]-1,3,4-thiadiazol-2-yl]acetamide], the IC50 was 0.0535 µM.
`COc1ccc([C@@H](OC)C(=O)Nc2nnc(N[C@@H]3CCN(c4nccnn4)C3)s2)cc1OC` [26(b), (2R)-2-(3,4-dimethoxyphenyl)-2-methoxy-N-[5-[[(3R)-1-(1,2,4-triazin-3-yl)pyrrolidin-3-yl]amino]-1,3,4-thiadiazol-2-yl]acetamide] gave an IC50 of 0.101 µM.
For `CO[C@H](C(=O)Nc1nnc(N[C@@H]2CCN(c3cncnn3)C2)s1)c1cccc(OC(F)F)c1` [23(a), (2S)-2-[3-(difluoromethoxy)phenyl]-2-methoxy-N-[5-[[(3R)-1-(1,2,4-triazin-6-yl)pyrrolidin-3-yl]amino]-1,3,4-thiadiazol-2-yl]acetamide], the IC50 was 0.00463 µM.
Work on `CO[C@H](C(=O)Nc1nnc(N[C@@H]2CCN(c3nccnn3)C2)s1)c1cccc(OC(F)(F)F)c1` [Example 8(a), (2S)-2-Methoxy-N-[5-[[(3R)-1-(1,2,4-triazin-3-yl)pyrrolidin-3-yl]amino]-1,3,4-thiadiazol-2-yl]-2-[3-(trifluoromethoxy)phenyl]acetamide] yielded an IC50 of 0.00504 µM.
For `[2H]C([2H])([2H])O[C@@]([2H])(C(=O)Nc1nnc(N[C@@H]2CCN(c3cccnn3)C2)s1)c1ccccc1` [20(b), (2R)-2-deuterio-2-phenyl-N-[5-[[(3R)-1-pyridazin-3-ylpyrrolidin-3-yl]amino]-1,3,4-thiadiazol-2-yl]-2-(trideuteriomethoxy)acetamide], the IC50 was 0.166 µM.
For `[2H]C([2H])([2H])O[C@H](C(=O)Nc1nnc(N[C@@H]2CCN(c3cccnn3)C2)s1)c1ccccc1` [18(a), (2S)-2-phenyl-N-[5-[[(3R)-1-pyridazin-3-ylpyrrolidin-3-yl]amino]-1,3,4-thiadiazol-2-yl]-2-(trideuteriomethoxy)acetamide], the IC50 was 0.00187 µM.
`CCO[C@H](C(=O)Nc1nnc(N[C@@H]2CCN(c3cccnn3)C2)s1)c1ccc(OC)cc1` [28(a), (2S)-2-ethoxy-2-(4-methoxyphenyl)-N-[5-[[(3R)-1-pyridazin-3-ylpyrrolidin-3-yl]amino]-1,3,4-thiadiazol-2-yl]acetamide] was tested, and the IC50 was 0.00928 µM.
In the case of `CO[C@H](C(=O)Nc1nnc(N[C@@H]2CCN(c3cncnn3)C2)s1)c1cccc(OC(F)(F)F)c1` [22(a), (2S)-2-methoxy-N-[5-[[(3R)-1-(1,2,4-triazin-6-yl)pyrrolidin-3-yl]amino]-1,3,4-thiadiazol-2-yl]-2-[3-(trifluoromethoxy)phenyl]acetamide], the IC50 is reported as 0.0107 µM.
`CO[C@H](C(=O)Nc1nnc(N[C@@H]2CCN(c3nccnn3)C2)s1)c1ccc(F)cc1` [17(a), (2S)-2-(4-fluorophenyl)-2-methoxy-N-[5-[[(3R)-1-(1,2,4-triazin-3-yl)pyrrolidin-3-yl]amino]-1,3,4-thiadiazol-2-yl]acetamide] gave an IC50 of 3.57 µM.
For `CO[C@@H](C(=O)Nc1nnc(N[C@@H]2CCN(c3nccnn3)C2)s1)c1ccccc1` [Example 1(b), (2R)-2-Methoxy-2-phenyl-N-[5-[[(3R)-1-(1,2,4-triazin-3-yl)pyrrolidin-3-yl]amino]-1,3,4-thiadiazol-2-yl]acetamide], the IC50 was 2.24 µM.
`CO[C@@H](C(=O)Nc1nnc(N[C@@H]2CCN(c3cccnn3)C2)s1)c1cccc(OC(F)F)c1` [Example 7(b), (2R)-2-[3-(Difluoromethoxy)phenyl]-2-methoxy-N-[5-[[(3R)-1-pyridazin-3-ylpyrrolidin-3-yl]amino]-1,3,4-thiadiazol-2-yl]acetamide] gave an IC50 of 0.00694 µM.
For `CO[C@@H](C(=O)Nc1nnc(N[C@@H]2CCN(c3nccnn3)C2)s1)c1cccc(OC(F)(F)F)c1` [Example 8(b), (2R)-2-Methoxy-N-[5-[[(3R)-1-(1,2,4-triazin-3-yl)pyrrolidin-3-yl]amino]-1,3,4-thiadiazol-2-yl]-2-[3-(trifluoromethoxy)phenyl]acetamide], the IC50 was 0.0367 µM.
Compound `CCO[C@@H](C(=O)Nc1nnc(N[C@@H]2CCN(c3cccnn3)C2)s1)c1cccc(OC(F)(F)F)c1` [Example 16(b), (2R)-2-Ethoxy-N-[5-[[(3R)-1-pyridazin-3-ylpyrrolidin-3-yl]amino]-1,3,4-thiadiazol-2-yl]-2-[3-(trifluoromethoxy)phenyl]acetamide] has an IC50 of 0.00638 µM.
With `CCO[C@H](C(=O)Nc1nnc(N[C@@H]2CCN(c3cccnn3)C2)s1)c1cccc(OC(F)(F)F)c1` [Example 16(a), (2S)-2-Ethoxy-N-[5-[[(3R)-1-pyridazin-3-ylpyrrolidin-3-yl]amino]-1,3,4-thiadiazol-2-yl]-2-[3-(trifluoromethoxy)phenyl]acetamide] the IC50 was 0.00132 µM.
`CO[C@H](C(=O)Nc1nnc(N[C@@H]2CCN(c3cccnn3)C2)s1)c1ccc(F)cc1` [Example 12(a), (2S)-2-(4-Fluorophenyl)-2-methoxy-N-[5-[[(3R)-1-pyridazin-3-ylpyrrolidin-3-yl]amino]-1,3,4-thiadiazol-2-yl]acetamide] showed an IC50 of 0.0135 µM.
`COc1ccc([C@H](OC)C(=O)Nc2nnc(N[C@@H]3CCN(c4nccnn4)C3)s2)cc1OC` [26(a), (2S)-2-(3,4-dimethoxyphenyl)-2-methoxy-N-[5-[[(3R)-1-(1,2,4-triazin-3-yl)pyrrolidin-3-yl]amino]-1,3,4-thiadiazol-2-yl]acetamide] was tested, and the IC50 was 2.05 µM.
Compound `[2H]C([2H])([2H])O[C@@H](C(=O)Nc1nnc(N[C@@H]2CCN(c3cccnn3)C2)s1)c1ccccc1` [18(b), (2R)-2-phenyl-N-[5-[[(3R)-1-pyridazin-3-ylpyrrolidin-3-yl]amino]-1,3,4-thiadiazol-2-yl]-2-(trideuteriomethoxy)acetamide] has an IC50 of 0.073 µM.
Work on `CCO[C@@H](C(=O)Nc1nnc(N[C@@H]2CCN(c3cccnn3)C2)s1)c1cccc(OC)c1` [30(b), (2R)-2-ethoxy-2-(3-methoxyphenyl)-N-[5-[[(3R)-1-pyridazin-3-ylpyrrolidin-3-yl]amino]-1,3,4-thiadiazol-2-yl]acetamide] yielded an IC50 of 0.00201 µM.
`CO[C@H](C(=O)Nc1nnc(N[C@@H]2CCN(c3cccnn3)C2)s1)c1cccc(OC(F)F)c1` [Example 7(a), (2S)-2-[3-(Difluoromethoxy)phenyl]-2-methoxy-N-[5-[[(3R)-1-pyridazin-3-ylpyrrolidin-3-yl]amino]-1,3,4-thiadiazol-2-yl]acetamide] showed an IC50 of 0.00224 µM.
